# US8658633B2, “Methods and compositions for treating conditions of the eye” (Massachusetts Eye and Ear Infirmary, priority 2006, dated 2014)
# How the values were obtained:
# NF-kB = assay: Quantification of retinal NF-kB activation (Trans-AM transcription factor assay on retinal nuclear extract); format: in vivo, Brown Norway rats
# Experimental: (§1) Briefly, CNV membranes were induced in Brown-Norway rats using an Argon/Dye laser while either 17AAG at a total dose of approximately 2 mg or the vehicle (DMSO) was continuously administered. Verterporfin PDT was performed 14 days after CNV induction at a verterporfin dose of 3 mg/m^2, an irradiance of 600 mW/cm^2, and a fluence of 25 J/cm^2. Choroidal neovasculature closure on fluorescein angiograms was assessed 24 hours and 7 days after PDT in a masked fashion using grading standards. Retinal levels of p42/44 MAPK, HIF-1a, NF-kB, VEGF, and endostatin were assessed with a modified enzyme-linked immunoabsorbant assay (“ELISA”) method. […]
# (§2) NF-kB and HIF-1a activation was analyzed using the Trans-AM NF-kB p65/NF-kB p50 Transcription Factor Assay Kit (Active Motif North America, Carlsbad, Calif.) according to the manufacturer's instructions. Briefly, two micrograms of a retinal nuclear extract were incubated with an oligonucleotide containing the consensus binding element for each of the transcription factors analyzed bound to a 96-well plate. […] After washes, the plates were subsequently incubated with a secondary antibody conjugated to horseradish peroxidase (1:1000), and the peroxidase reaction was quantified at 450 nm with a reference wavelength of 655 nm. […]
# p42/44 MAPK = assay: Retinal p42/44 MAPK activation (modified ELISA) in laser-induced CNV rats; format: in vivo, Brown Norway rats
# Experimental: (§3) Briefly, CNV membranes were induced in Brown-Norway rats using an Argon/Dye laser while either 17AAG at a total dose of approximately 2 mg or the vehicle (DMSO) was continuously administered. Verterporfin PDT was performed 14 days after CNV induction at a verterporfin dose of 3 mg/m^2, an irradiance of 600 mW/cm^2, and a fluence of 25 J/cm^2. Choroidal neovasculature closure on fluorescein angiograms was assessed 24 hours and 7 days after PDT in a masked fashion using grading standards. Retinal levels of p42/44 MAPK, HIF-1a, NF-kB, VEGF, and endostatin were assessed with a modified enzyme-linked immunoabsorbant assay (“ELISA”) method. […] The combination of 17-allylamino-17-demethoxygeldanamycin treatment and PDT treatment was also synergistic with respect to increased endostatin levels.
# To achieve steady drug levels in the circulation of animals, 17AAG (Calbiochem EMD Biosciences, San Diego, Calif.) or the vehicle (DMSO, Sigma, St. Louis, Mo.) was administered by slow intraperitoneal release from osmotic pumps (Alzet, Cupertino, Calif.) instead of repeated intraperitoneal injections. Immediately following the induction of choroidal neovascularization, osmotic pumps (Alzet, Cupertino, Calif.) were implanted as previously described (Poulaki et al. (2002) J. Clin. Invest. 109(6): 805-15). […]
# HIF-1a = assay: Quantification of retinal HIF-1a activation (Trans-AM transcription factor assay on retinal nuclear extract); format: in vivo, Brown Norway rats
# Experimental: as §1, §2
# endostatin = assay: ELISA for retinal endostatin levels in laser-induced CNV rats; format: in vivo, Brown Norway rats
# Experimental: as §1
# Each retina was homogenized in 100 μl of solution consisting of 20 mM imidazole hydrochloride, 100 mM KCl, 1 mM MgCl, 1 mM EGTA, 1% Triton, 10 mM NaF, 1 mM sodium molybdynate and 1 mM EDTA supplemented with a cocktail of protease inhibitors (Complete, Roche, Basel, Switzerland) prior to use. Samples were cleared by centrifugation for 10 min. at 13,000 rpm and assessed for protein concentration with the BCA assay (Micro BCA™ Protein Assay Kit, Pierce Co., Rockford, Ill.). […] The reaction was stopped, and the absorption was measured in an ELISA reader at 450 nm. […] The tissue sample concentration was calculated from a standard curve and corrected for protein concentration.
# laser-induced CNV = assay: Fluorescein angiography grading of leakage and CNV closure in the rat model of laser-induced CNV; format: in vivo, Brown Norway rats
# Experimental: as §3
# All experiments adhered to the Association for Research in Vision and Ophthalmology Statement for the Use of Animals in Ophthalmic and Vision Research and the guidelines established by the Animal Care Committee of the Massachusetts Eye and Ear Infirmary. Brown Norway rats (Charles River Laboratory, Wilmington, Mass.) were anesthetized via an intramuscular injection of 50 mg/kg of ketamine hydrochloride and 10 mg/kg of xylazine. Pupils were dilated with a topical application of 5% phenylephrine and 0.8% tropicamide. […]
# Fluorescein angiography (“FA”) was performed 14 days after the initial laser treatment using a digital fundus camera system (model TRC 501A Topcon, Paramus, N.J.) and standard fluorescein filters to determine if CNV induction was successful. […] All angiograms were evaluated in masked fashion by two independent retina specialists using grading standards regarding severity of CNV (baseline FAs) and CNV closure (24 hours FAs).
# PDT with verteporfin was performed on experimental CNV. […] The body surface area of each rat was determined based on their weight according to a nomogram developed by Gilpin (Gilpin et al. (1996) Burns 22(8): 607-1 1). […]
# [1] = design: unit not given here; conditions: typical value, general description; cited from earlier work
compound,measurement,setting,value
"C=CCNC1=C2C[C@@H](C)C[C@H](OC)[C@H](O)[C@@H](C)/C=C(\C)[C@H](OC(N)=O)[C@@H](OC)/C=C\C=C(/C)C(=O)NC(=CC1=O)C2=O [17AAG, 17-allylamino-17-demethoxygeldanamycin]",retinal levels of NF-kB activation,"NF-kB; 17AAG and PDT treated animals, 1 day after PDT, PDT without 17AAG 13.7±0.3",5.9±0.045 O.D./μg tissue
same,retinal levels of NF-kB activation,"NF-kB; 17AAG and laser treated animals without PDT, P>0.05 vs laser treated 10.12±0.74",9.54±1.47 O.D./μg tissue
same,retinal levels of p42/44 MAPK activation,"p42/44 MAPK; 17AAG and PDT treated animals, 1 day after PDT, PDT without 17AAG 923±45",417±6 O.D./μg tissue
same,retinal levels of p42/44 MAPK activation,"p42/44 MAPK; 17AAG and laser treated animals without PDT, P>0.05 vs laser treated 603±1",560±22 O.D./μg tissue
same,retinal levels of HIF-1a activation,"HIF-1a; 17AAG and PDT treated animals, 1 day after PDT, PDT without 17AAG 1.69±0.38",0.946±0.06 O.D./μg tissue
same,retinal levels of HIF-1a activation,"HIF-1a; 17AAG and laser treated animals without PDT, P>0.05 vs laser treated 1.06±0.1",1.064±0.136 O.D./μg tissue
same,retinal levels of endostatin,"endostatin; 17AAG and PDT treated animals, 1 day after PDT, statistically significant vs laser treated 15.7±2.8",258±6 O.D./μg tissue
same,retinal levels of endostatin,"endostatin; 17AAG and laser treated animals without PDT, P>0.05 vs laser treated 15.7±2.8",32.34±6.11 O.D./μg tissue
same,lesions closed one week after PDT treatment,"laser-induced CNV; grade IIB lesions, 17AAG in combination with verteporfin PDT, DMSO+PDT control 6 out of 17",12 out of the 14
same,lesions closed one day after PDT treatment,"laser-induced CNV; grade IIB lesions, 17AAG in combination with verteporfin PDT, DMSO+PDT control 9 out of 17",12 out of the 14
same,lesions showing the highest grade (IIB) of leakage,"laser-induced CNV; two weeks following CNV induction, 17AAG approx. 2 mg by i.p. osmotic pump, without PDT, P>0.05 vs DMSO (32 out of 53)",26 out of 47
C=Cc1c(C)c2cc3nc(c(CC(=O)N[C@@H](CC(=O)O)C(=O)O)c4[nH]c(cc5nc(cc1[nH]2)C(C)=C5CC)c(C)c4C(=O)O)[C@@H](CCC(=O)O)[C@@H]3C [N-aspartyl chlorin e6],time the photosensitizer persists in the target neovasculature,[1],about twenty
CC(=O)[O-].CC(=O)[O-].CCc1c(CC)c2cc3nc(cnc4cc(OCCOCCOCCOC)c(OCCOCCOCCOC)cc4ncc4nc(cc1[n-]2)C(CCCO)=C4C)C(C)=C3CCCO.O.[Lu+3] [lutetium texaphyrin],time the photosensitizer persists in the target neovasculature,[1],about twenty
benzoporphyrin derivative,time the photosensitizer persists in the target neovasculature,[1],about fifty
